Measurements from patent US5547944A, “Dermatan sulphate possessing a thrombolytic activity, and pharmaceutical forms containing it” (Opocrin S.p.A., priority 1991, dated 1996).

Assays:
[1] = tested on: thrombus formations in the occluded vena cava; assay: thrombolytic activity on already formed vena cava thrombus versus urokinase; type: in vivo, rat
Procedure: DS administered intravenously is active at a dose of 0.1 mg/kg in inhibiting 90% of a Jugular vein thrombosis induced by Protein Complex Concentrate (PCC) in the rabbit, and in inhibiting 70% of a thrombosis induced by a PCC/RVV (Russel Viper Venom) combination; (Fareed J. et al.; Sem. Thromb. Haemost. 11, 155-157 (1985)).
With dermatan sulphate fractions similar to the one coded 1.25M as obtained in Example 1b) comparative studies were made on thrombolytic activity versus urokinase. Four groups of 10 rats each were anaesthetised with 1 g/kg of urethane administered in endoperitoneal physiological solution by endoperitoneal route. The vena cava of the rats was subjected to ligature in line with the Reyers test (Thromb. Res. 18, 699, 1980), and two hours after the ligature 5 mg/kg/i.v. of DS and 5000 U/kg of Ukidan (Urokinase-Serono) were administered. After eight hours the thrombus formations in the occluded vein were removed.

bleeding time = conditions: in vivo

| Substance | reduction in thrombus weight ([1]; bolus then 6 hours infusion: DS 2.5 mg/kg + 1.25 mg/kg/hour, urokinase 2500 U/kg + 1250 U/kg/hour, relative to untreated controls) | mean thrombus weight ([1]; treated two hours after ligature, 5 mg/kg i.v. DS or 5000 U/kg Ukidan, thrombus removed eight hours after ligature) | effect on bleeding time (bleeding time) |
| --- | --- | --- | --- |
| Urokinase | 70.2% | 2.2 mg |  |
| dermatan sulphate [DS] |  |  | very little effect |
